# Target: T1, gastrin (CCK2) receptors (Rattus norvegicus, UniProt P30553)
# T1 construct: The stomach was excised and flushed with ca. 1 ml of unbuffered physiological saline solution; from tissue; host or cells: isolated whole stomach of immature rats (ca. 21 days old)
# T1 sequence (P30553 1-452): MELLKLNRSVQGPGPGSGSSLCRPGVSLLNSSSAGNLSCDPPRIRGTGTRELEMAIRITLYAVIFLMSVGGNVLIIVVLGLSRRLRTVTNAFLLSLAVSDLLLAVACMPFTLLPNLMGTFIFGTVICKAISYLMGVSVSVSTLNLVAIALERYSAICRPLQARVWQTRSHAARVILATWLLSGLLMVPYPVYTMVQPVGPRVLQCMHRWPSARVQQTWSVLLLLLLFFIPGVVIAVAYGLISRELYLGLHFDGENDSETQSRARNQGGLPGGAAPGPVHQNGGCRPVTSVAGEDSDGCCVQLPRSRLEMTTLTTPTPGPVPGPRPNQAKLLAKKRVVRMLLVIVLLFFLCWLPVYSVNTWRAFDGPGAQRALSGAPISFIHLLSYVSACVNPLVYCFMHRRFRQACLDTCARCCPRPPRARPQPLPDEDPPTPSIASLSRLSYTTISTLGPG
# Test: gastrin (CCK2) antagonist activity in an immature rat stomach assay
# Details: pentagastrin dose-response curves, acid secretion, read-out: pKB rat stomach (converted)
# Procedure, shortened: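 Stomachs excised from immature rats (33-50 g, ca. 21 days old) were perfused at 1 ml min^−1 with unbuffered O2-gassed saline, with acid output tracked by a pH electrode. After 120 min stabilisation, drug was added to the serosal bath, followed 60 min later by cumulative pentagastrin dose-response curves.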
row,SMILES,Kb [nM]
1,"COC(=O)c1cccc(NC(=O)CN2N=C(C3CCCCC3)c3ccccc3N(CC(=O)C(C)(C)C)C2=O)c1 [Example 1, 3-{2-[5-Cyclohexyl-1-(3,3-dimethyl-2-oxo-butyl)-2-oxo-1,2-dihydro-3H-1,3,4-benzotriazepin-3-yl]-acetylamino}-benzoic acid methyl ester]",2.82
2,"CC(C)(C)C(=O)CN1C(=O)N(CC(=O)Nc2cccc(CCC(=O)O)c2)N=C(C2CCCCC2)c2ccccc21 [Example 61, 3-(3-{2-[5-Cyclohexyl-1-(3,3-dimethyl-2-oxo-butyl)-2-oxo-1,2-dihydro-3H-1,3,4-benzotriazepin-3-yl]-acetylamino}-phenyl)-propionic acid]",4.47
3,"CNc1cccc(NC(=O)CN2N=C(c3ccccc3)c3ccccc3N(CC(=O)C(C)(C)C)C2=O)c1 [Example 4, 2-[1-(3,3-Dimethyl-2-oxo-butyl)-2-oxo-5-phenyl-1,2-dihydro-3H-1,3,4-benzotriazepin-3-yl]-N-(3-methylamino-phenyl)-acetamide]",132
4,Cc1nc(-c2cccc(NC(=O)CN3N=C(C4CCCCC4)c4ccccc4N(CC(=O)C(C)(C)C)C3=O)c2)cs1 [Example 107],3.31
5,"CC(C)(C)C(=O)CN1C(=O)N(CC(=O)Nc2ccc3ncn(CC(=O)O)c3c2)N=C(C2CCCCC2)c2ccccc21 [Example 94, (6-{2-[5-Cyclohexyl-1-(3,3-dimethyl-2-oxo-butyl)-2-oxo-1,2-dihydro-3H-1,3,4-benzotriazepin-3-yl]-acetylamino)-benzimidazol-1-yl)-acetic acid]",155
6,"CNc1nc(-c2cccc(NC(=O)CN3N=C(C4CCCCC4)c4ccccc4N(CC(=O)C(C)(C)C)C3=O)c2)cs1 [Example 150, 2-[5-Cyclohexyl-1-(3,3-dimethyl-2-oxo-butyl)-2-oxo-1,2-dihydro-3H-1,3,4-benzotriazepin-3-yl]-N-[3-(2-methylamino-thiazol-4-yl)-phenyl]-acetamide]",1.29
7,"CC(C)(C)OC(=O)CN1C(=O)N(CC(=O)Nc2cccc(C(=O)O)c2)N=C(C2CCCCC2)c2ccccc21 [Example 95, 3-[2-(1-tert-Butoxycarbonylmethyl-5-cyclohexyl-2-oxo-1,2-dihydro-3H-1,3,4-benzotriazepin-3-yl)-acetylamino]-benzoic acid]",3.98
8,"CC(C)(C)C(=O)CN1C(=O)N(CC(=O)Nc2cccc(-c3ccc(C(=O)O)o3)c2)N=C(C2CCCCC2)c2ccccc21 [Example 145, 5-(3-{2-[5-Cyclohexyl-1-(3,3-dimethyl-2-oxo-butyl)-2-oxo-1,2-dihydro-3H-1,3,4-benzotriazepin-3-yl]-acetylamino}-phenyl)-furan-2-carboxylic acid]",3.39
9,"Cc1cccc2c1C(C1CCCCC1)=NN(CC(=O)Nc1cccc(CC(=O)O)c1)C(=O)N2CC(=O)C(C)(C)C [Example 132, (3-{2-[5-Cyclohexyl-1-(3,3-dimethyl-2-oxo-butyl)-6-methyl-2-oxo-1,2-dihydro-3H-1,3,4-benzotriazepin-3-yl]-acetylamino}-phenyl)-acetic acid]",66.1
10,"CC1(C(=O)CN2C(=O)N(CC(=O)Nc3cccc(CC(=O)O)c3)N=C(C3CCCCC3)c3ccccc32)CCCC1 [Example 82, [3-(2-{5-Cyclohexyl-1-[2-(1-methyl-cyclopentyl)-2-oxo-ethyl]-2-oxo-1,2-dihydro-3H-1,3,4-benzotriazepin-3-yl}-acetylamino)-phenyl]-acetic acid]",9.55
11,"CC(C)(C)C(=O)CN1C(=O)N(CC(=O)Nc2cccc(N3CCCC3C(=O)O)c2)N=C(C2CCCCC2)c2ccccc21 (stereo in doubt) [Example 76, (R)-]-(3-{2-[5-Cyclohexyl-1-(3,3-dimethyl-2-oxobutyl)-2-oxo-1,2-dihydro-3H-1,3,4-benzotriazepin-3-yl]-acetylamino}-phenyl)-pyrrolidine-2-carboxylic acid]",110
12,"O=C(CN1N=C(C2CCCCC2)c2ccccc2N(CC(=O)C2CCCC2)C1=O)Nc1cccc(-c2csc(C(=O)O)n2)c1 [Example 137, 4-(3-{2-[5-Cyclohexyl-1-(2-cyclopentyl-2-oxo-ethyl)-2-oxo-1,2-dihydro-3H-1,3,4-benzotriazepin-3-yl]-acetylamino}-phenyl)-thiazole-2-carboxylic acid]",2.88
13,"CC(C)(C)C(=O)CN1C(=O)N(CC(=O)Nc2cccc(-c3nc(C(=O)O)co3)c2)N=C(C2CCCCC2)c2ccccc21 [Example 144, 2-(3-{2-[5-Cyclohexyl-1-(3,3-dimethyl-2-oxo-butyl)-2-oxo-1,2-dihydro-3H-1,3,4-benzotriazepin-3-yl]-acetylamino}-phenyl)-oxazole-4-carboxylic acid]",4.17
14,"CC(C)(C)C(=O)CN1C(=O)N(CC(=O)Nc2cccc(CO)n2)N=C(C2CCCCC2)c2ccccc21 [Example 106, 2-[5-Cyclohexyl-1-(3,3-dimethyl-2-oxo-butyl)-2-oxo-1,2-dihydro-3H-1,3,4-benzotriazepin-3-yl]-N-(6-hydroxymethyl-pyridin-2-yl)-acetamide]",129
15,"O=C(CN1N=C(C2CCCCC2)c2ccccc2N(CC(=O)C23CC4CC(CC(C4)C2)C3)C1=O)Nc1cccc(C(=O)O)c1 [Example 17, 3-{2-[1-(2-Adamantan-1-yl-2-oxo-ethyl)-5-cyclohexyl-2-oxo-1,2-dihydro-3H-1,3,4-benzotriazepin-3-yl]-acetylamino}-benzoic acid]",115
16,"CNc1cccc(NC(=O)CN2N=C(CC(C)C)c3ccccc3N(CC(=O)C(C)(C)C)C2=O)c1 [Example 13, 2-[1-(3,3-Dimethyl-2-oxo-butyl)-5-isobutyl-2-oxo-1,2-dihydro-3H-1,3,4-benzotriazepin-3-yl]-N-(3-methylaminophenyl)-acetamide]",51.3
17,"CNc1cccc(NC(=O)CN2N=C(C3CCCCC3)c3ccccc3N(CC(=O)N3CCN(C)CC3)C2=O)c1 [Example 72, 2-{5-Cyclohexyl-1-[2-(4-methyl-piperazin-1-yl)-2-oxo-ethyl]-2-oxo-1,2-dihydro-3H-1,3,4-benzotriazepin-3-yl}-N-(3-methylamino-phenyl)-acetamide]",263
18,"CC1(C(=O)CN2C(=O)N(CC(=O)Nc3cccc(C(=O)O)c3)N=C(C3CCCCC3)c3ccccc32)CCCC1 [Example 88, 3-(2-{5-Cyclohexyl-1-[2-(1-methyl-cyclopentyl)-2-oxo-ethyl]-2-oxo-1,2-dihydro-3H-1,3,4-benzotriazepin-3-yl}-acetylamino)-benzoic acid]",11.7
19,"CCOCCNc1cccc(NC(=O)CN2N=C(C3CCCCC3)c3ccccc3N(CC(=O)C(C)(C)C)C2=O)c1 [Example 42, 2-[5-Cyclohexyl-1-(3,3-dimethyl-2-oxo-butyl)-2-oxo-1,2-dihydro-3H-1,3,4-benzotriazepin-3-yl]-N-[3-(2-ethoxy-ethylamino)-phenyl)-acetamide]",105

# Reference: patent publication US20050026911A1, “Benzotriazapinone salts and methods for using same” (priority 2003, published 2005)
